The source of these data is patent US12403144B2, “HECT E3 ligase inhibitors and uses thereof” (IFOM FONDAZIONE ISTITUTO FIRC DI ONCOLOGIA MOLECOLARE, priority 2019, dated 2025).

For test [1], the target named is T1, untagged HECT of NEDD4 wild-type (WT) (E3 ligase) (Homo sapiens, UniProt P46934).
T1 construct: untagged HECT of NEDD4 wild-type (WT) (E3 ligase); made in house
T1 sequence (P46934 519-900 isoform P46934-4 limits assumed): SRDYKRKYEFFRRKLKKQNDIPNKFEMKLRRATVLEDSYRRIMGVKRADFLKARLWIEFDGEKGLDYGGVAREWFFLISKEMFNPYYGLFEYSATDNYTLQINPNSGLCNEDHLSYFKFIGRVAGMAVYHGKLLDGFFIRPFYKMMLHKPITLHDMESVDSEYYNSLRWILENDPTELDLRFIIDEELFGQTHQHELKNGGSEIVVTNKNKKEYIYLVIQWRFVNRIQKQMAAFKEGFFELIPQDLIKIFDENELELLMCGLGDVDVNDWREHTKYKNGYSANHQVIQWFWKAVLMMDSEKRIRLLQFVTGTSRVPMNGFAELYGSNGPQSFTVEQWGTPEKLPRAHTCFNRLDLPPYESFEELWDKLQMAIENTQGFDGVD
In words: In vitro ubiquitination assay TR-FRET based (self-ubiquitination of NEDD4). Particulars: for inhibition at 11 µM: pre-incubated for 1 hour, AUC of 120 minutes kinetic, read-out: percentages of inhibition (NEDD4). Type of test: biochemical. The method, boiled down:
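Mix of E1, His-UBE2D3 and untagged NEDD4 HECT (final 30, 350, 50 nM) with Eu-cryptate/Cy5/unlabelled ubiquitin in pH 7.6 Tris buffer, compounds (100–0.005 μM dilution series) pre-incubated 1 h, then started with ATP. 665/620 nm TR-FRET followed 120 min; % inhibition from AUC versus DMSO, no-ATP background.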
On the technique in general: In TR-FRET formats the signal depends on donor and acceptor labels being close together.

Test [2] concerns the target T2, untagged HECT of ITCH (E3 ligase) (Homo sapiens, UniProt Q96J02).
T2 construct: using untagged HECT of ITCH (E3 ligase) instead of untagged HECT of NEDD4 wild-type (WT) (E3 ligase); made in house
Briefly: In vitro ubiquitination assay TR-FRET based, ITCH. The following applies: read-out: percentage of inhibition (ITCH). Type of test: biochemical. On the procedure: To determine the selectivity of identified NEDD4 inhibitors, it was quantitatively measured the self-ubiquitination process of the E3 HECT ligase belonging to NEDD4 family such as NEDD4L, HECW2 and ITCH in presence or not of some compounds such as 5, 9, 12, 29, 42, 45, 56, 58, 61, 77, 78, 85 and 94 employing TR-FRET based assays.
The assay was performed as described above in the paragraph titled “In vitro ubiquitination assay TR-FRET based” under the heading “2.1. NEDD4 UBIQUITINATION ASSAYS” using untagged HECT of ITCH (E3 ligase) instead of untagged HECT of NEDD4 wild-type (WT) (E3 ligase). In this case, final E1, E2 and E3 concentrations in the assay buffer (Tris-HCl pH 7.6 25 mM, NaCl 100 mM, MgCl2 5 mM and Tween 0.01%) were 30, 350 and 60 nanomolars, respectively. Untagged HECT of ITCH (E3 ligase) enzyme was produced and purified as reported in E. Maspero et al. Methods Mol Biol. 1449:153-60 (2016) and in E. Maspero et al. EMBO Reports 12:342-349(2011).

Counter-ions that a name gives are not always drawn.

T2 sequence (Q96J02 569-903 limits assumed): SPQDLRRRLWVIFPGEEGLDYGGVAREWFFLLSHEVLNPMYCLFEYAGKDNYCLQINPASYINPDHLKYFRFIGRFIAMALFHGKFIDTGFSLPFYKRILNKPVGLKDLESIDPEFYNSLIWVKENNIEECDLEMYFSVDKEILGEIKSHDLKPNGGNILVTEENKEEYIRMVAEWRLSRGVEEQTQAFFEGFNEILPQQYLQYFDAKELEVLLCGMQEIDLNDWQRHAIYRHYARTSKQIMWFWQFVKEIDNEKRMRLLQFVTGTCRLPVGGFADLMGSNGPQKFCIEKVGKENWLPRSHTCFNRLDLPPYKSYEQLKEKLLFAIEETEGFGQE

For the compound `CCOC(=O)/C=C/CCNCCCN1c2ccccc2CCc2ccc(Cl)cc21` [Compound 5, Ethyl (E)-5-[3-(3-chloro-10,11-dihydro-5H-dibenzo[b,f]azepin-5-yl)propylamino]pent-2-enoate maleate], the inhibition at 11 µM in test [1] is over 50%; in test [2], under 15%.
The matching figures for `CON(C)C(=O)/C=C/CN(C)CCCCN1c2ccccc2CCc2ccc(Cl)cc21` [Compound 9, (E)-4-[4-(3-Chloro-10,11-dihydro-5H-dibenzo[b,f]azepin-5-yl)butyl-methyl-amino]-N-methoxy-N-methyl-but-2-enamide]: over 50% and under 20%.
In the case of `CCOC(=O)/C=C/CNCCCCN1c2ccccc2CCc2ccc(Cl)cc21.O=C(O)/C=C\C(=O)O` [Compound 12, Ethyl (E)-4-[4-(3-chloro-10,11-dihydro-5H-dibenzo[b,f]azepin-5-yl)butylamino]but-2-enoate maleate], in test [1] (FIG. 1, HECT NEDD4 WT, concentrations indicated in the figure), the “inhibition of enzymatic activity, TR-FRET kinetic assay (% of signal/background during the time)” value is reported as “dose dependent inhibition of enzymatic activity”. The inhibition at 11 µM in test [1] is over 50%; in test [2], under 5%.
On to `CCOC(=O)/C=C/CNCCCCN1c2ccccc2C(=O)N(C)c2ccc(Cl)cc21` [Compound 29, Ethyl (E)-4-{[4-(7-chloro-10-methyl-11-oxo-10,11-dihydro-5H-dibenzo[b,e][1,4]diazepin-5-yl)butyl]amino}but-2-enoate maleate], for which the inhibition at 11 µM is over 50% in test [1] and under 5% in test [2].
Consider `CCOC(=O)/C=C/CNCCCCN1c2cc(Cl)ccc2C(=O)N(C)c2ccccc21` [Compound 42, Ethyl (E)-4-{[4-(3-chloro-10-methyl-11-oxo-10,11-dihydro-5H-dibenzo[b,e][1,4]diazepin-5-yl)butyl]amino}but-2-enoate maleate], for which the inhibition at 11 µM in test [1] is over 50%; in test [2], under 15%.
The matching figures for `CCOC(=O)/C=C/CNCCCCN1c2ccccc2C(=O)N(Cc2ccccc2)c2ccc(Cl)cc21` [Compound 45, Ethyl (E)-4-{[4-(10-benzyl-7-chloro-11-oxo-10,11-dihydro-5H-dibenzo[b,e][1,4]diazepin-5-yl)butyl]amino}but-2-enoate maleate]: over 50% and under 5%.
As to `CCOC(=O)/C=C/CNCCCCN1c2cc(Cl)ccc2C(=O)N(Cc2ccccc2)c2ccccc21` [Compound 56, Ethyl (E)-4-((4-(10-benzyl-3-chloro-11-oxo-10,11-dihydro-5H-dibenzo[b,e][1,4]diazepin-5-yl)butyl)amino)but-2-enoate maleate], the inhibition at 11 µM in test [1] is over 50%; in test [2], under 15%.
As to `COC(=O)/C=C/CN(C)CCCCN1c2cc(Cl)ccc2C(=O)N(Cc2ccccc2)c2ccccc21` [Compound 58, Methyl (E)-4-{[4-(10-benzyl-3-chloro-11-oxo-10,11-dihydro-5H-dibenzo[b,e][1,4]diazepin-5-yl)butyl](methyl)amino}but-2-enoate maleate], the inhibition at 11 µM in test [1] is over 50%; in test [2], under 15%.
The matching figures for `CN(C/C=C/C#N)CCCCN1c2cc(Cl)ccc2C(=O)N(Cc2ccccc2)c2ccccc21` [Compound 61, (E)-4-{[4-(10-benzyl-3-chloro-11-oxo-10,11-dihydro-5H-dibenzo[b,e][1,4]diazepin-5-yl)butyl](methyl)amino}but-2-enenitrile maleate]: over 50% and under 5%.
As to `C#CCON(C)C(=O)/C=C/CN(C)CCCCN1c2ccccc2CCc2ccc(Cl)cc21` [Compound 77, (E)-4-[4-(3-Chloro-10,11-dihydro-5H-dibenzo[b,f]azepin-5-yl)butyl-methyl-amino]-N-methyl-N-prop-2-ynoxy-but-2-enamide maleate], the results for the inhibition at 11 µM in test [1] and in test [2] were over 50% and under 5%, respectively.
The matching figures for `CONC(=O)/C=C/CNCCCCN1c2ccccc2CCc2ccc(Cl)cc21` [Compound 78, (E)-4-[4-(3-Chloro-10,11-dihydro-5H-dibenzo[b,f]azepin-5-yl)butylamino]-N-methoxy-but-2-enamide maleate]: over 50% and under 20%.
In the case of `CONC(=O)/C=C/CN(C)CCCCN1c2ccccc2CCc2ccc(Cl)cc21` [Compound 85, (E)-4-[4-(3-Chloro-10,11-dihydro-5H-dibenzo[b,f]azepin-5-yl)butyl-methyl-amino]-N-methoxy-but-2-enamide maleate], the inhibition at 11 µM in test [1] was over 50%; in test [2] it was under 25%.
The matching figures for `CN(C/C=C/C(=O)OCCOCCOCCOCCNC(=O)CCCC[C@@H]1SC[C@@H]2NC(=O)N[C@@H]21)CCCCN1c2ccccc2CCc2ccc(Cl)cc21` [Compound 94, 2-[2-(2-{2-[5-((3aS,4S,6aR)-2-Oxo-hexahydro-thieno[3,4-d]imidazol-4-yl)-pentanoylamino]-ethoxy}-ethoxy)-ethoxy]-ethyl (E)-4-{[4-(3-chloro-10,11-dihydro-dibenzo[b,f]azepin-5-yl)-butyl]-methyl-amino}but-2-enoate]: over 50% and under 15%.

As a reminder, the inhibition is how much of the control response was suppressed.
